Test results from US20240043859A1, “HERBICIDE-RESISTANT PROTEIN, AND GENE AND USE THEREOF” (QINGDAO KINGAGROOT CHEMICAL COMPOUND CO., LTD., priority 2020, published 2024).
Entries after “also recorded” stand apart in the source; their conditions may differ.

Key:
AAD-12 = molecular target: T1, AAD-12 (Delftia acidovorans, UniProt P83309); assay: Degradation activities of AAD-12 on phenoxy acetic acid herbicides by spectrophotometry (A510); type: biochemical, Comamonas acidovorans
T1 construct: made in house; host or cells: E. coli BL21(DE3)
T1 sequence (P83309 2-292, added parts left off): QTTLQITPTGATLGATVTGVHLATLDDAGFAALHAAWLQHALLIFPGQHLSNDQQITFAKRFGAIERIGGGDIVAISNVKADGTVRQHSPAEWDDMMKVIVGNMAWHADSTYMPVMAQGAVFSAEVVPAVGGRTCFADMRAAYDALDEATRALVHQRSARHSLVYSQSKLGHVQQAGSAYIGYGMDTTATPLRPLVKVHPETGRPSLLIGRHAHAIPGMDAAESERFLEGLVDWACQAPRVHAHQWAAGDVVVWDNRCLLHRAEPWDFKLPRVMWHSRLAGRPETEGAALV
Procedure: As reported in literature (Fukomori and Flausinger, Purification and characterization of 2,4-dichlorophenoxyacetate/alpha-ketoglutarate dioxygenase Journal of Biological Chemistry (1993) 268(32): 24311-24317), the constructed expression vector pET15b-AAD12 was transformed into E. coli BL21(DE3) and induced by IPTG for expression. After cells were collected and lysed, Ni-NTA column was used for purification and the purity of the protein was analyzed by SDS-PAGE.
Since phenolic products were produced by AAD-12-substrate catalytic reaction, 4-aminoantipyrine and potassium ferricyanide could be used to develop color with the products in an alkaline environment to generate red products with absorption at 510 nm, and the relevant parameters were directly read with a microplate reader.

maize B104 = assay: Herbicide-resistance capacity testing of transgenic maize (spray); type: in vivo; settings: 4.48 kg/ha foliage spray, 14 days / 15 days
Text: 1. Vector construction: the overexpression vector was altered from pCambia3300, containing a Bar resistance gene that can be used as a selection marker for bialaphos (glufosinate). The AAD-like gene, QYD42, SEQ ID NO. 83, was linked to the pCambia3300 at the BamH I restriction site by seamless cloning to construct the transgenic vector pQY2329, of which the expression cassette consisted of a maize ubiquitin-1 promoter, the AAD gene and a Nos terminator, as shown in FIG. 7-1.
2. Genetic transformation of maizes: Maize transformation was carried out by the Agrobacterium-mediated immature embryo transformation method (Jones T, Lowe K, Hoerster G, et al. Maize Transformation Using the Morphogenic Genes Baby Boom and Wuschel2. Methods Mol Biol. 2019; 1864:81-93. Doi: 10.1007/978-1-4939-8778-8 6). The Agrobacterium (EHA105) comprising the pQY2329 overexpression vector was inoculated into YEP liquid medium (containing 25 mg/L Rifampicin and 50 mg/L Kanamycin), and shaking-cultured a t 28° C., 220 rmp/min overnight until the OD600 was about 1.0-1.5, then centrifuged at 6000 rmp/min for 10 min to collect the cells into a 50 ml centrifuge tube (sterilized). After discarding the supernatant, the cells were resuspended using MS infect culture medium (containing 68.5 g/L sucrose, 36 g/L glucose, pH 5.8) to OD550=0.8. […]

[1] = AAD-12 enzyme with substrate, chromogenic detection at 510 nm

O=C(O)COc1ccc(Cl)cc1Cl [2,4-D, (2,4-dichlorophenoxy)acetic acid, reference compound]
Degradation activity of expressed AAD-12 enzyme on the substrate (AAD-12): degradation activities
A510 of reaction group, Reaction 1 (AAD-12; [1]): 0.2865
A510 of reaction group, Reaction 2 (AAD-12; [1]): 0.2766
A510 of reaction group, Reaction 3 (AAD-12; [1]): 0.2652
Increased A510 (AAD-12; reaction group versus blank group): +0.130
Effect of the herbicide spray on non-transgenic maize B104 (maize B104): apparent phytotoxicity, root nodules, reduced root system and easily-lodging plant; also recorded: stem bases of maize B104 are swollen
